{"source": "paper PMC10046961", "about": "“High-Throughput Screening Assay for Detecting Drug-Induced Changes in Synchronized Neuronal Oscillations and Potential Seizure Risk Based on Ca^2+ Fluorescence Measurements in Human Induced Pluripotent Stem Cell (hiPSC)-Derived Neuronal 2D and 3D Cultures” (Cells, 2023)", "key": {"[1]": {"settings": "ref PharmaPendium, cited from earlier work"}, "[2]": {"system": "hiPSC-derived neurons co-cultured with human primary astrocytes in 2D", "experiment": "Ca2+ transient oscillation assay (FDSS), 2D co-culture", "type": "cell-based", "settings": "Homo sapiens, 1 h, 60 min", "procedure,_shortened": "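hiPSC-derived excitatory neurons (CW50065, Quick-Neuron EX-SeV) co-cultured with human primary astrocytes at 4:1 (10,000:2500 cells per well). Cal-520-loaded cells in HBSS with 2 mM CaCl2 and 10 mM HEPES were pretreated with 0.04% DMSO.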"}, "[3]": {"system": "hiPSC-derived neurons co-cultured with human primary astrocytes in 3D", "experiment": "Ca2+ transient oscillation assay (FDSS), 3D spheroids", "type": "cell-based", "settings": "60 min", "procedure,_shortened": "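Fura-2 fluorescence was read twice for 20 min each: a baseline 10 min after 0.04% DMSO, and again 60 min after compound addition at nominal final concentration. The 3D co-cultures (1:1 hiPSC neurons from a donor and human astrocytes, 8000 each) matured 5 weeks in BrainPhys medium after a 1-week differentiation.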"}, "[4]": {"settings": "Table 1, peak plasma concentration in men, free therapeutic Cmax"}, "[5]": {"settings": "Table 2, highest plasma concentration in humans after the therapeutic dose"}, "[6]": {"settings": "read-out: Area under the curve - 2D Mean"}, "[7]": {"settings": "read-out: Peak amplitude - 2D Mean"}, "[8]": {"settings": "read-out: Peak-to-peak interval - 2D Mean"}}, "note": "Like-named read-outs stand apart in the source and are kept apart here."}
{"smiles": "NC(=O)N1c2ccccc2C=Cc2ccccc21", "note": "[Carbamazepine]", "values": [{"measurement": "Free Cmax", "setting": "[1]; [4]", "value": 10, "unit": "µM"}, {"measurement": "Free Cmax", "setting": "[1]; [5]", "value": 10, "unit": "µM"}, {"measurement": "activation at 3.7 µM", "setting": "[2]; [6]", "value": 31.5, "unit": "%"}, {"measurement": "activation at 3.7 µM", "setting": "[2]; read-out: Peak Number—2D Mean", "value": -15.3, "unit": "%"}, {"measurement": "activation at 3.7 µM", "setting": "[2]; [7]", "value": 16.5, "unit": "%"}, {"measurement": "activation at 3.7 µM", "setting": "[2]; read-out: Peak width - 2D Mean", "value": 19, "unit": "%"}, {"measurement": "activation at 3.7 µM", "setting": "[2]; [8]", "value": 0.8, "unit": "%"}, {"measurement": "activation at 11.11 µM", "setting": "[2]; [6]", "value": 62, "unit": "%"}, {"measurement": "activation at 11.11 µM", "setting": "[2]; read-out: Peak Number—2D Mean", "value": -17, "unit": "%"}, {"measurement": "activation at 11.11 µM", "setting": "[2]; [7]", "value": 8.5, "unit": "%"}, {"measurement": "activation at 11.11 µM", "setting": "[2]; read-out: Peak width - 2D Mean", "value": 66.5, "unit": "%"}, {"measurement": "activation at 11.11 µM", "setting": "[2]; [8]", "value": 45.8, "unit": "%"}, {"measurement": "activation at 33.33 µM", "setting": "[2]; [6]", "value": -39.7, "unit": "%"}, {"measurement": "activation at 33.33 µM", "setting": "[2]; read-out: Peak Number—2D Mean", "value": -76.8, "unit": "%"}, {"measurement": "activation at 33.33 µM", "setting": "[2]; [7]", "value": -52, "unit": "%"}, {"measurement": "activation at 33.33 µM", "setting": "[2]; read-out: Peak width - 2D Mean", "value": -36.7, "unit": "%"}, {"measurement": "activation at 33.33 µM", "setting": "[2]; [8]", "value": 45, "unit": "%"}, {"measurement": "activation at 100 µM", "setting": "[2]; [6]", "value": -100, "unit": "%"}, {"measurement": "activation at 100 µM", "setting": "[2]; read-out: Peak Number—2D Mean", "value": -100, "unit": "%"}, {"measurement": "activation at 100 µM", "setting": "[2]; [7]", "value": -100, "unit": "%"}, {"measurement": "activation at 100 µM", "setting": "[2]; read-out: Peak width - 2D Mean", "value": -100, "unit": "%"}, {"measurement": "activation at 100 µM", "setting": "[2]; [8]", "value": -100, "unit": "%"}, {"measurement": "Area under the curve - 3D Mean", "setting": "[3]; 3.7 µM", "value": 122.1, "unit": "% change from baseline"}, {"measurement": "Peak Number—3D Mean", "setting": "[3]; 3.7 µM", "value": 11.4, "unit": "% change from baseline"}, {"measurement": "Peak amplitude - 3D Mean", "setting": "[3]; 3.7 µM", "value": 114.1, "unit": "% change from baseline"}, {"measurement": "Peak width - 3D Mean", "setting": "[3]; 3.7 µM", "value": 2.9, "unit": "% change from baseline"}, {"measurement": "Peak-to-peak interval - 3D Mean", "setting": "[3]; 3.7 µM", "value": "−4.9", "unit": "% change from baseline"}, {"measurement": "Area under the curve - 3D Mean", "setting": "[3]; 11.11 µM", "value": 121.7, "unit": "% change from baseline"}, {"measurement": "Peak Number—3D Mean", "setting": "[3]; 11.11 µM", "value": 3.9, "unit": "% change from baseline"}, {"measurement": "Peak amplitude - 3D Mean", "setting": "[3]; 11.11 µM", "value": 114.1, "unit": "% change from baseline"}, {"measurement": "Peak width - 3D Mean", "setting": "[3]; 11.11 µM", "value": 2.8, "unit": "% change from baseline"}, {"measurement": "Peak-to-peak interval - 3D Mean", "setting": "[3]; 11.11 µM", "value": 9.5, "unit": "% change from baseline"}, {"measurement": "Area under the curve - 3D Mean", "setting": "[3]; 33.33 µM", "value": 107.4, "unit": "% change from baseline"}, {"measurement": "Peak Number—3D Mean", "setting": "[3]; 33.33 µM", "value": "−19.3", "unit": "% change from baseline"}, {"measurement": "Peak amplitude - 3D Mean", "setting": "[3]; 33.33 µM", "value": 93.5, "unit": "% change from baseline"}, {"measurement": "Peak width - 3D Mean", "setting": "[3]; 33.33 µM", "value": 5.1, "unit": "% change from baseline"}, {"measurement": "Peak-to-peak interval - 3D Mean", "setting": "[3]; 33.33 µM", "value": 33.5, "unit": "% change from baseline"}, {"measurement": "Area under the curve - 3D Mean", "setting": "[3]; 100 µM", "value": 173.0, "unit": "% change from baseline"}, {"measurement": "Peak Number—3D Mean", "setting": "[3]; 100 µM", "value": "−21.5", "unit": "% change from baseline"}, {"measurement": "Peak amplitude - 3D Mean", "setting": "[3]; 100 µM", "value": 85.2, "unit": "% change from baseline"}, {"measurement": "Peak width - 3D Mean", "setting": "[3]; 100 µM", "value": 43.8, "unit": "% change from baseline"}, {"measurement": "Peak-to-peak interval - 3D Mean", "setting": "[3]; 100 µM", "value": 25.1, "unit": "% change from baseline"}]}
{"smiles": "CN(C)CCCN1c2ccccc2Sc2ccc(Cl)cc21", "note": "[Chlorpromazine]", "values": [{"measurement": "Free Cmax", "setting": "[1]; [4]", "value": "0.05 to 0.15", "unit": "µM"}, {"measurement": "Free Cmax", "setting": "[1]; [5]", "value": "0.05 to 0.15", "unit": "µM"}, {"measurement": "activation at 0.11 µM", "setting": "[2]; [6]", "value": 26.5, "unit": "%"}, {"measurement": "activation at 0.11 µM", "setting": "[2]; read-out: Peak Number—2D Mean", "value": -27, "unit": "%"}, {"measurement": "activation at 0.11 µM", "setting": "[2]; [7]", "value": 8.7, "unit": "%"}, {"measurement": "activation at 0.11 µM", "setting": "[2]; read-out: Peak width - 2D Mean", "value": 18, "unit": "%"}, {"measurement": "activation at 0.11 µM", "setting": "[2]; [8]", "value": 47.2, "unit": "%"}, {"measurement": "activation at 0.33 µM", "setting": "[2]; [6]", "value": 36, "unit": "%"}, {"measurement": "activation at 0.33 µM", "setting": "[2]; read-out: Peak Number—2D Mean", "value": -29.5, "unit": "%"}, {"measurement": "activation at 0.33 µM", "setting": "[2]; [7]", "value": 4, "unit": "%"}, {"measurement": "activation at 0.33 µM", "setting": "[2]; read-out: Peak width - 2D Mean", "value": 38.5, "unit": "%"}, {"measurement": "activation at 0.33 µM", "setting": "[2]; [8]", "value": 48, "unit": "%"}, {"measurement": "activation at 1 µM", "setting": "[2]; [6]", "value": 10.7, "unit": "%"}, {"measurement": "activation at 1 µM", "setting": "[2]; read-out: Peak Number—2D Mean", "value": -59.8, "unit": "%"}, {"measurement": "activation at 1 µM", "setting": "[2]; [7]", "value": -4.3, "unit": "%"}, {"measurement": "activation at 1 µM", "setting": "[2]; read-out: Peak width - 2D Mean", "value": 13.8, "unit": "%"}, {"measurement": "activation at 1 µM", "setting": "[2]; [8]", "value": 151, "unit": "%"}, {"measurement": "activation at 3 µM", "setting": "[2]; [6]", "value": -100, "unit": "%"}, {"measurement": "activation at 3 µM", "setting": "[2]; read-out: Peak Number—2D Mean", "value": -100, "unit": "%"}, {"measurement": "activation at 3 µM", "setting": "[2]; [7]", "value": -100, "unit": "%"}, {"measurement": "activation at 3 µM", "setting": "[2]; read-out: Peak width - 2D Mean", "value": -100, "unit": "%"}, {"measurement": "activation at 3 µM", "setting": "[2]; [8]", "value": -100, "unit": "%"}, {"measurement": "Area under the curve - 3D Mean", "setting": "[3]; 0.11 µM", "value": 128.5, "unit": "% change from baseline"}, {"measurement": "Peak Number—3D Mean", "setting": "[3]; 0.11 µM", "value": 6.5, "unit": "% change from baseline"}, {"measurement": "Peak amplitude - 3D Mean", "setting": "[3]; 0.11 µM", "value": 96.7, "unit": "% change from baseline"}, {"measurement": "Peak width - 3D Mean", "setting": "[3]; 0.11 µM", "value": 13.3, "unit": "% change from baseline"}, {"measurement": "Peak-to-peak interval - 3D Mean", "setting": "[3]; 0.11 µM", "value": 10.0, "unit": "% change from baseline"}, {"measurement": "Area under the curve - 3D Mean", "setting": "[3]; 0.33 µM", "value": 129.9, "unit": "% change from baseline"}, {"measurement": "Peak Number—3D Mean", "setting": "[3]; 0.33 µM", "value": "−2.6", "unit": "% change from baseline"}, {"measurement": "Peak amplitude - 3D Mean", "setting": "[3]; 0.33 µM", "value": 100.7, "unit": "% change from baseline"}, {"measurement": "Peak width - 3D Mean", "setting": "[3]; 0.33 µM", "value": 13.6, "unit": "% change from baseline"}, {"measurement": "Peak-to-peak interval - 3D Mean", "setting": "[3]; 0.33 µM", "value": 12.5, "unit": "% change from baseline"}, {"measurement": "Area under the curve - 3D Mean", "setting": "[3]; 1 µM", "value": 132.1, "unit": "% change from baseline"}, {"measurement": "Peak Number—3D Mean", "setting": "[3]; 1 µM", "value": 11.5, "unit": "% change from baseline"}, {"measurement": "Peak amplitude - 3D Mean", "setting": "[3]; 1 µM", "value": 102.4, "unit": "% change from baseline"}, {"measurement": "Peak width - 3D Mean", "setting": "[3]; 1 µM", "value": 13.0, "unit": "% change from baseline"}, {"measurement": "Peak-to-peak interval - 3D Mean", "setting": "[3]; 1 µM", "value": "−9.6", "unit": "% change from baseline"}, {"measurement": "Area under the curve - 3D Mean", "setting": "[3]; 3 µM", "value": 131.9, "unit": "% change from baseline"}, {"measurement": "Peak Number—3D Mean", "setting": "[3]; 3 µM", "value": "−4.8", "unit": "% change from baseline"}, {"measurement": "Peak amplitude - 3D Mean", "setting": "[3]; 3 µM", "value": 98.4, "unit": "% change from baseline"}, {"measurement": "Peak width - 3D Mean", "setting": "[3]; 3 µM", "value": 16.6, "unit": "% change from baseline"}, {"measurement": "Peak-to-peak interval - 3D Mean", "setting": "[3]; 3 µM", "value": 6.0, "unit": "% change from baseline"}]}
